Source: patent US10722501B2 (BAYER AKTIENGESELLSCHAFT, priority 2016, dated 2020)

Target: T1, recombinant full-length human prolyl endopeptidase (PREP) (Homo sapiens, UniProt P48147)
T1 construct: To recombinant full-length human prolyl endopeptidase (PREP, R&D-Systems, 4308-SE); purchased R&D-Systems 4308-SE
T1 sequence (P48147 1-710): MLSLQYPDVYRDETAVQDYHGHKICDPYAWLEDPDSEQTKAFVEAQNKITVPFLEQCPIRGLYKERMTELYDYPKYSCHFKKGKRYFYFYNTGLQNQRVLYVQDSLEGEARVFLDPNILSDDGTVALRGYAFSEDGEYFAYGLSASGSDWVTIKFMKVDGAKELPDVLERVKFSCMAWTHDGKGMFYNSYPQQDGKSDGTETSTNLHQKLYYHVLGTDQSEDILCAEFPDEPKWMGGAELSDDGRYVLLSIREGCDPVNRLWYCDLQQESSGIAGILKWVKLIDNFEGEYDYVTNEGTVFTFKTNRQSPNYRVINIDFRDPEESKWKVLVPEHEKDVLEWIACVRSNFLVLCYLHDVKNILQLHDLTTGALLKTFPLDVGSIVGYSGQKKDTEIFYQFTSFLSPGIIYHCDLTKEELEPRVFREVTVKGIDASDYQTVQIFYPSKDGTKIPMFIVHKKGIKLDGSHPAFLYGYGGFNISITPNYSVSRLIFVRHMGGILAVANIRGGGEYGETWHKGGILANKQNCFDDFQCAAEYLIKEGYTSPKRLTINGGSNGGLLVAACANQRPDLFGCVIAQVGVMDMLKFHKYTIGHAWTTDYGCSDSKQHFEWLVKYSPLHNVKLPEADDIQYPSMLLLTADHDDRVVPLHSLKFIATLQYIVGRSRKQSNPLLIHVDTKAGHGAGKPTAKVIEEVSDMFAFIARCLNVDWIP
Test: Biochemical human prolyl endopeptidase (PREP) assay with fluorescently labelled substrate
Details: substrate Z-Gly-Pro-AMC 50 μM, 32° C., 60 min; some as mean values from multiple independent determinations
In short: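 Initial rates of fluorescence increase from 50 μM Z-Gly-Pro-AMC cleavage (ex 360/em 465 nm, 60 min, 32° C) give percent PREP activity versus no-compound control, and IC50 is interpolated. Enzyme used at 0.4 nM (final, example) in Tris pH 7.5 with EDTA, GSH, BSA and Brij-35; compounds span 1 nM to 30 μM.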

Structure (SMILES)	IC50
O=C([C@@H]1CCCc2nn(Cc3ccc(C(F)(F)F)c(Cl)c3)c(=O)n21)N1CC[C@H](F)C1 [Example 461, (5S)-2-[3-Chloro-4-(trifluoromethyl)benzyl]-5-{[(3S)-3-fluoropyrrolidin-1-yl]carbonyl}-5,6,7,8-tetrahydro[1,2,4]triazolo[4,3-a]pyridin-3(2H)-one]	625 pM
O=C([C@@H]1CCCc2nn(Cc3ccc(C(F)(F)F)c(F)c3)c(=O)n21)N1CC[C@H](F)C1 [Example 471, (5S)-5-{[(3S)-3-Fluoropyrrolidin-1-yl]carbonyl}-2-[3-fluoro-4-(trifluoromethyl)benzyl]-5,6,7,8-tetrahydro[1,2,4]triazolo[4,3-a]pyridin-3(2H)-one]	425 pM
O=C([C@@H]1CCCc2nn(Cc3ccc(C(F)(F)F)c(F)c3)c(=O)n21)N1C[C@@H](F)[C@@H](F)C1 [Example 472, (5S)-5-{[(3R,4S)-3,4-Difluoropyrrolidin-1-yl]carbonyl}-2-[3-fluoro-4-(trifluoromethyl)benzyl]-5,6,7,8-tetrahydro[1,2,4]triazolo[4,3-a]pyridin-3(2H)-one]	245 pM
O=C([C@@H]1CCCc2nn(Cc3ccc(F)cc3Cl)c(=O)n21)N1C[C@@H](F)[C@@H](F)C1 [Example 474, (5S)-2-(2-Chloro-4-fluorobenzyl)-5-{[(3R,4S)-3,4-difluoropyrrolidin-1-yl]carbonyl}-5,6,7,8-tetrahydro[1,2,4]triazolo[4,3-a]pyridin-3(2H)-one]	360 pM
O=C([C@@H]1CCCc2nn(Cc3ccc(F)cc3Cl)c(=O)n21)N1CC[C@H](F)C1 [Example 475, (5S)-2-(2-Chloro-4-fluorobenzyl)-5-{[(3S)-3-fluoropyrrolidin-1-yl]carbonyl}-5,6,7,8-tetrahydro[1,2,4]triazolo[4,3-a]pyridin-3(2H)-one]	330 pM
O=C([C@@H]1CCCc2nn(Cc3ccc(F)cc3Cl)c(=O)n21)N1CC(F)C1 [Example 476, (5S)-2-(2-Chloro-4-fluorobenzyl)-5-[(3-fluoroazetidin-1-yl)carbonyl]-5,6,7,8-tetrahydro[1,2,4]triazolo[4,3-a]pyridin-3(2H)-one]	780 pM
O=C([C@@H]1CCCc2nn(Cc3ccnc(C(F)(F)F)c3F)c(=O)n21)N1CC[C@@H](F)C1 [Example 478, (5S)-5-{[(3R)-3-Fluoropyrrolidin-1-yl]carbonyl}-2-{[3-fluoro-2-(trifluoromethyl)pyridin-4-yl]methyl}-5,6,7,8-tetrahydro[1,2,4]triazolo[4,3-a]pyridin-3(2H)-one]	2650 pM
O=C([C@@H]1CCCc2nn(Cc3ccnc(C(F)(F)F)c3F)c(=O)n21)N1CC[C@H](O)C1 [Example 479, (5S)-2-{[3-Fluoro-2-(trifluoromethyl)pyridin-4-yl]methyl}-5-{[(3S)-3-hydroxypyrrolidin-1-yl]carbonyl}-5,6,7,8-tetrahydro[1,2,4]triazolo[4,3-a]pyridin-3(2H)-one]	25000 pM
O=C([C@@H]1CCCc2nn(Cc3ccnc(C(F)(F)F)c3F)c(=O)n21)N1C[C@@H](F)[C@@H](F)C1 [Example 480, (5S)-5-{[(3R,4S)-3,4-Difluoropyrrolidin-1-yl]carbonyl}-2-{[3-fluoro-2-(trifluoromethyl)pyridin-4-yl]methyl}-5,6,7,8-tetrahydro[1,2,4]triazolo[4,3-a]pyridin-3(2H)-one]	520 pM
O=C([C@@H]1CCCc2nn(Cc3ccnc(C(F)(F)F)c3F)c(=O)n21)N1CC(O)C1 [Example 481, (5S)-2-{[3-Fluoro-2-(trifluoromethyl)pyridin-4-yl]methyl}-5-[(3-hydroxyazetidin-1-yl)carbonyl]-5,6,7,8-tetrahydro[1,2,4]triazolo[4,3-a]pyridin-3(2H)-one]	27500 pM
O=C([C@@H]1CCCc2nn(Cc3ccnc(C(F)(F)F)c3F)c(=O)n21)N1CCC(F)(F)C1 [Example 482, (5S)-5-[(3,3-Difluoropyrrolidin-1-yl)carbonyl]-2-{[3-fluoro-2-(trifluoromethyl)pyridin-4-yl]methyl}-5,6,7,8-tetrahydro[1,2,4]triazolo[4,3-a]pyridin-3(2H)-one]	2800 pM
O=C([C@@H]1CCCc2nn(Cc3ccnc(C(F)(F)F)c3F)c(=O)n21)N1CC(F)C1 [Example 483, (5S)-5-[(3-Fluoroazetidin-1-yl)carbonyl]-2-{[3-fluoro-2-(trifluoromethyl)pyridin-4-yl]methyl}-5,6,7,8-tetrahydro[1,2,4]triazolo[4,3-a]pyridin-3(2H)-one]	2100 pM
O=C([C@@H]1CCCc2nn(Cc3ccnc(C(F)(F)F)c3F)c(=O)n21)N1CC[C@H](F)C1 [Example 484, (5S)-5-{[(3S)-3-Fluoropyrrolidin-1-yl]carbonyl}-2-{[3-fluoro-2-(trifluoromethyl)pyridin-4-yl]methyl}-5,6,7,8-tetrahydro[1,2,4]triazolo[4,3-a]pyridin-3(2H)-one]	295 pM

Next, values leading:

IC50	Structure (SMILES)
285 pM	O=C([C@@H]1CCCc2nn(Cc3ccc(Cl)c(F)c3)c(=O)n21)N1C[C@@H](F)[C@@H](F)C1 [Example 462, (5S)-2-(4-Chloro-3-fluorobenzyl)-5-{[(3R,4S)-3,4-difluoropyrrolidin-1-yl]carbonyl}-5,6,7,8-tetrahydro[1,2,4]triazolo[4,3-a]pyridin-3(2H)-one]
225 pM	O=C([C@@H]1CCCc2nn(Cc3ccc(Cl)c(F)c3)c(=O)n21)N1CC(F)C1 [Example 463, (5S)-2-(4-Chloro-3-fluorobenzyl)-5-[(3-fluoroazetidin-1-yl)carbonyl]-5,6,7,8-tetrahydro[1,2,4]triazolo[4,3-a]pyridin-3(2H)-one]
510 pM	O=C([C@@H]1CCCc2nn(Cc3ccc(Cl)c(F)c3)c(=O)n21)N1CCC(F)(F)C1 [Example 464, (5S)-2-(4-Chloro-3-fluorobenzyl)-5-[(3,3-difluoropyrrolidin-1-yl)carbonyl]-5,6,7,8-tetrahydro[1,2,4]triazolo[4,3-a]pyridin-3(2H)-one]
2100 pM	O=C([C@@H]1CCCc2nn(Cc3ccc(Cl)c(F)c3)c(=O)n21)N1CC(F)(F)C1 [Example 465, (5S)-2-(4-Chloro-3-fluorobenzyl)-5-[(3,3-difluoroazetidin-1-yl)carbonyl]-5,6,7,8-tetrahydro[1,2,4]triazolo[4,3-a]pyridin-3(2H)-one]
410 pM	O=C([C@@H]1CCCc2nn(Cc3ccc(F)c(F)c3)c(=O)n21)N1CC[C@H](F)C1 [Example 466, (5S)-2-(3,4-Difluorobenzyl)-5-{[(3S)-3-fluoropyrrolidin-1-yl]carbonyl}-5,6,7,8-tetrahydro[1,2,4]triazolo[4,3-a]pyridin-3(2H)-one]
490 pM	O=C([C@@H]1CCCc2nn(Cc3ccc(F)c(F)c3)c(=O)n21)N1C[C@@H](F)[C@@H](F)C1 [Example 467, (5S)-2-(3,4-Difluorobenzyl)-5-{[(3R,4S)-3,4-difluoropyrrolidin-1-yl]carbonyl}-5,6,7,8-tetrahydro[1,2,4]triazolo[4,3-a]pyridin-3(2H)-one]
1400 pM	O=C([C@@H]1CCCc2nn(Cc3ccc(F)c(F)c3)c(=O)n21)N1CCC(F)(F)C1 [Example 468, (5S)-2-(3,4-Difluorobenzyl)-5-[(3,3-difluoropyrrolidin-1-yl)carbonyl]-5,6,7,8-tetrahydro[1,2,4]triazolo[4,3-a]pyridin-3(2H)-one]
795 pM	O=C([C@@H]1CCCc2nn(Cc3ccc(F)c(F)c3)c(=O)n21)N1CC(F)C1 [Example 469, (5S)-2-(3,4-Difluorobenzyl)-5-[(3-fluoroazetidin-1-yl)carbonyl]-5,6,7,8-tetrahydro[1,2,4]triazolo[4,3-a]pyridin-3(2H)-one]
820 pM	O=C([C@@H]1CCCc2nn(Cc3ccc(C(F)(F)F)c(F)c3)c(=O)n21)N1CCC(F)(F)C1 [Example 470, (5S)-5-[(3,3-Difluoropyrrolidin-1-yl)carbonyl]-2-[3-fluoro-4-(trifluoromethyl)benzyl]-5,6,7,8-tetrahydro[1,2,4]triazolo[4,3-a]pyridin-3(2H)-one]
170 pM	O=C([C@@H]1CCCc2nn(Cc3ccc(C(F)(F)F)c(F)c3)c(=O)n21)N1CC(F)C1 [Example 473, (5S)-5-[(3-Fluoroazetidin-1-yl)carbonyl]-2-[3-fluoro-4-(trifluoromethyl)benzyl]-5,6,7,8-tetrahydro[1,2,4]triazolo[4,3-a]pyridin-3(2H)-one]
210 pM	O=C([C@@H]1CCCc2nn(Cc3ccc(F)cc3Cl)c(=O)n21)N1CCC(F)(F)C1 [Example 477, (5S)-2-(2-Chloro-4-fluorobenzyl)-5-[(3,3-difluoropyrrolidin-1-yl)carbonyl]-5,6,7,8-tetrahydro[1,2,4]triazolo[4,3-a]pyridin-3(2H)-one]
